Experimental data published in US20060069132A1, “Azolecarboxamide herbicides” (priority 2004, published 2006).

What was measured:
common ragweed = assay: Test C pre-/postemergence herbicide test; type: in vivo, Ambrosia elatior; design: key to Plant response rating, Ragweed: 0 = no effect, 100 = complete control; settings: for Plant response rating (0 = no effect, 100 = complete control), Ragweed: 125 g ai/ha
How it was run: (§1)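 Pre/post spray; non-phytotoxic solvent + surfactant. Post-timing 1–4 leaves, 2–18 cm. Read-out: visual % control vs untreated, day 12–14, greenhouse.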

eastern black nightshade = assay: Test C pre-/postemergence herbicide test; type: in vivo, Solanum ptycanthum
How it was run: as §1

lambsquarters = assay: Test C pre-/postemergence herbicide test; type: in vivo, Chenopodium album
How it was run: as §1

bermudagrass = assay: Test C pre-/postemergence herbicide test; type: in vivo, Cynodon dactylon
How it was run: as §1

giant foxtail = assay: Test C pre-/postemergence herbicide test; type: in vivo, Setaria faberi
How it was run: as §1

[1] = system: smallflower umbrella sedge; assay: Test C flooded paddy test; type: in vivo, Cyperus difformis
morningglory = assay: Test C pre-/postemergence herbicide test; type: in vivo, Ipomoea coccinea; design: key to Plant response rating, Morningglory: 0 = no effect, 100 = complete control
How it was run: as §1

barnyardgrass = assay: Test C flooded paddy test; type: in vivo, Echinochloa crus-galli
How it was run: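 Postemergence sprays were applied to plants 2 to 18 cm tall (1- to 4-leaf stage); in the flooded paddy test, barnyardgrass was grown to the 2-leaf stage. After 12 to 14 days in a greenhouse, injury was visually rated against untreated controls on a 0–100 scale (100 = complete control).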

yellow nutsedge = assay: Test C pre-/postemergence herbicide test; type: in vivo, Cyperus esculentus
How it was run: as §1

[2] = 62 g ai/ha, preemergence, scale 0 to 100
[3] = 250 g ai/ha, scale 0-100, preemergence
[4] = 500 g ai/ha, scale 0 to 100 (0 no effect, 100 complete control), visual, 12 to 14 days, preemergence
[5] = 62 g ai/ha, preemergence, scale 0 to 100, 0 no effect, 100 complete control
[6] = 125 g ai/ha, scale 0 to 100 (0 no effect, 100 complete control)
[7] = 250 g ai/ha, scale of 0 to 100, 0 is no effect, 100 is complete control
[8] = 500 g ai/ha, visual rating after 12 to 14 days, scale 0 to 100 (0 no effect, 100 complete control)
[9] = 62 g ai/ha, scale 0 to 100 (0 no effect, 100 complete control)
[10] = 125 g ai/ha, scale 0 (no effect) to 100 (complete control), visual, 12 to 14 days, preemergence

CCNC(=O)c1cccc(NC(=O)c2nn(C(C)(C)C)nc2C)c1 [Compound 392]
Plant response rating, Ragweed (common ragweed; [2]): 60 | Plant response rating (0 = no effect, 100 = complete control), Ragweed (common ragweed; preemergence): 100 | Plant response rating, Ragweed (common ragweed; [3]): 100 | Plant response rating, Ragweed (common ragweed; [4]): 100 | Plant response rating, Nightshade (eastern black nightshade; [2]): 90 | Plant response rating (0 = no effect, 100 = complete control), Nightshade (eastern black nightshade; 125 g ai/ha, preemergence): 95 | Plant response rating, Nightshade (eastern black nightshade; [3]): 100 | Plant response rating, Nightshade (eastern black nightshade; [4]): 100 | Plant response rating, Lambsquarters (lambsquarters; [2]): 100 | Plant response rating (0 = no effect, 100 = complete control), Lambsquarters (lambsquarters; 125 g ai/ha, preemergence): 100 | Plant response rating, Lambsquarters (lambsquarters; [3]): 100 | Plant response rating, Lambsquarters (lambsquarters; [4]): 100 | Plant response rating, Bermudagrass (bermudagrass; [5]): 90 | Plant response rating (0 = no effect, 100 = complete control), Bermudagrass (bermudagrass; 125 g ai/ha, preemergence): 90 | Plant response rating, Bermudagrass (bermudagrass; [3]): 95 | Plant response rating, Bermudagrass (bermudagrass; [4]): 95 | Plant response rating, Foxtail, Giant (giant foxtail; [2]): 65 | Plant response rating (0 = no effect, 100 = complete control), Foxtail, Giant (giant foxtail; 125 g ai/ha, preemergence): 90 | Plant response rating, Foxtail, Giant (giant foxtail; [3]): 100 | Plant response rating, Foxtail, Giant (giant foxtail; [4]): 100 | Sedge, Umbrella plant response rating ([1]; 62 g ai/ha, scale 0 to 100): 70 | Sedge, Umbrella plant response rating [1, 6]: 75 | Sedge, Umbrella plant response rating [1, 7]: 85 | Plant response rating, Sedge, Umbrella [1, 8]: 85 | Plant response rating, Morningglory (morningglory; [2]): 70 | Plant response rating (0 = no effect, 100 = complete control), Morningglory (morningglory; 125 g ai/ha, preemergence): 95 | Plant response rating, Morningglory (morningglory; [3]): 100 | Plant response rating, Morningglory (morningglory; [4]): 100 | Barnyardgrass plant response rating (barnyardgrass; [9]): 15 | Barnyardgrass plant response rating (barnyardgrass; [6]): 45 | Barnyardgrass plant response rating (barnyardgrass; [7]): 80 | Plant response rating, Barnyardgrass (barnyardgrass; [8]): 90 | Plant response rating, Nutsedge, Yellow (yellow nutsedge; [2]): 0 | Plant response rating (0 = no effect, 100 = complete control), Nutsedge, Yellow (yellow nutsedge; 125 g ai/ha, preemergence): 10 | Plant response rating, Nutsedge, Yellow (yellow nutsedge; [3]): 30 | Plant response rating, Nutsedge, Yellow (yellow nutsedge; [4]): 90

CCN(C)C(=O)c1ccc(F)c(NC(=O)C2CC(C(C)(C)C)=NN2CC)c1 (racemic) [Compound 307]
Plant response rating, Ragweed (common ragweed; [2]): 80 | Plant response rating, Ragweed (common ragweed; [3]): 100 | Plant response rating, Ragweed (common ragweed; [4]): 100 | Plant response rating, Nightshade (eastern black nightshade; [2]): 100 | Plant response rating, Nightshade (eastern black nightshade; [10]): 100 | Plant response rating, Nightshade (eastern black nightshade; [3]): 100 | Plant response rating, Nightshade (eastern black nightshade; [4]): 100 | Plant response rating, Lambsquarters (lambsquarters; [2]): 100 | Plant response rating, Lambsquarters (lambsquarters; [10]): 100 | Plant response rating, Lambsquarters (lambsquarters; [3]): 100 | Plant response rating, Lambsquarters (lambsquarters; [4]): 100 | Plant response rating, Bermudagrass (bermudagrass; [5]): 90 | Plant response rating, Bermudagrass (bermudagrass; [10]): 100 | Plant response rating, Bermudagrass (bermudagrass; [3]): 100 | Bermudagrass plant response rating (bermudagrass; Preemergence, 500 g ai/ha, scale 0 to 100, 0 no effect, 100 complete control): 100 | Plant response rating, Foxtail, Giant (giant foxtail; [2]): 70 | Plant response rating, Foxtail, Giant (giant foxtail; [10]): 85 | Plant response rating, Foxtail, Giant (giant foxtail; [3]): 100 | Plant response rating, Foxtail, Giant (giant foxtail; [4]): 100 | Sedge, Umbrella plant response rating ([1]; 62 g ai/ha, scale 0 to 100): 40 | Sedge, Umbrella plant response rating [1, 6]: 70 | Sedge, Umbrella plant response rating [1, 7]: 80 | Plant response rating, Sedge, Umbrella [1, 8]: 85 | Plant response rating, Morningglory (morningglory; [2]): 0 | Plant response rating, Morningglory (morningglory; [10]): 10 | Plant response rating, Morningglory (morningglory; [3]): 10 | Plant response rating, Morningglory (morningglory; [4]): 15 | Barnyardgrass plant response rating (barnyardgrass; [9]): 30 | Barnyardgrass plant response rating (barnyardgrass; [6]): 65 | Barnyardgrass plant response rating (barnyardgrass; [7]): 80 | Plant response rating, Barnyardgrass (barnyardgrass; [8]): 95 | Plant response rating, Nutsedge, Yellow (yellow nutsedge; [2]): 5 | Plant response rating, Nutsedge, Yellow (yellow nutsedge; [10]): 20 | Plant response rating, Nutsedge, Yellow (yellow nutsedge; [3]): 50 | Plant response rating, Nutsedge, Yellow (yellow nutsedge; [4]): 50

CCn1nc2c(c1C(=O)Nc1cc(C(=O)N(C)C)ccc1F)CCC2(C)C [Compound 352, N-[5-[(dimethylamino)carbonyl]-2-fluorophenyl]-2-ethyl-2,4,5,6-tetrahydro-6,6-dimethyl-3-cyclopentapyrazolecarboxamide]
Plant response rating (0 = no effect, 100 = complete control), Ragweed (common ragweed; preemergence): 40 | pest or weed control at 62 g/ha (common ragweed; Ambrosia artemisiifolia, pre-emergence, 62 g ai/ha, preemergence, scale 0 to 100, read-out: Plant response rating, Ragweed): 0% | pest or weed control at 250 g/ha (common ragweed; Ambrosia artemisiifolia, pre-emergence, 250 g ai/ha, scale 0-100, read-out: Plant response rating, Ragweed): 50% | pest or weed control at 500 g/ha (common ragweed; Ambrosia artemisiifolia, pre-emergence, 500 g ai/ha, scale 0 to 100 (0 no effect, 100 complete control), visual, 12 to 14 days, read-out: Plant response rating, Ragweed): 60% | Plant response rating (0 = no effect, 100 = complete control), Nightshade (eastern black nightshade; 125 g ai/ha, preemergence): 0 | pest or weed control at 62 g/ha (eastern black nightshade; pre-emergence, 62 g ai/ha, preemergence, scale 0 to 100, read-out: Plant response rating, Nightshade): 0% | pest or weed control at 250 g/ha (eastern black nightshade; pre-emergence, 250 g ai/ha, scale 0-100, read-out: Plant response rating, Nightshade): 50% | pest or weed control at 500 g/ha (eastern black nightshade; pre-emergence, 500 g ai/ha, scale 0 to 100 (0 no effect, 100 complete control), visual, 12 to 14 days, read-out: Plant response rating, Nightshade): 100% | Plant response rating (0 = no effect, 100 = complete control), Lambsquarters (lambsquarters; 125 g ai/ha, preemergence): 100 | pest or weed control at 62 g/ha (lambsquarters; Chenopodium album, pre-emergence, 62 g ai/ha, preemergence, scale 0 to 100, read-out: Plant response rating, Lambsquarters): 85% | pest or weed control at 250 g/ha (lambsquarters; Chenopodium album, pre-emergence, 250 g ai/ha, scale 0-100, read-out: Plant response rating, Lambsquarters): 100% | pest or weed control at 500 g/ha (lambsquarters; Chenopodium album, pre-emergence, 500 g ai/ha, scale 0 to 100 (0 no effect, 100 complete control), visual, 12 to 14 days, read-out: Plant response rating, Lambsquarters): 100% | Plant response rating (0 = no effect, 100 = complete control), Bermudagrass (bermudagrass; 125 g ai/ha, preemergence): 100 | pest or weed control at 62 g/ha (bermudagrass; Cynodon dactylon, pre-emergence, 312 h, 62 g ai/ha, preemergence, scale 0 to 100, 0 no effect, 100 complete control, read-out: Plant response rating, Bermudagrass): 95% | pest or weed control at 250 g/ha (bermudagrass; Cynodon dactylon, pre-emergence, 312 h, 250 g ai/ha, scale 0-100, read-out: Plant response rating, Bermudagrass): 100% | pest or weed control at 500 g/ha (bermudagrass; Cynodon dactylon, pre-emergence, 312 h, 500 g ai/ha, scale 0 to 100 (0 no effect, 100 complete control), visual, 12 to 14 days, read-out: Plant response rating, Bermudagrass): 100% | Plant response rating (0 = no effect, 100 = complete control), Foxtail, Giant (giant foxtail; 125 g ai/ha, preemergence): 60 | pest or weed control at 62 g/ha (giant foxtail; Setaria faberi, pre-emergence, 312 h, 62 g ai/ha, preemergence, scale 0 to 100, read-out: Plant response rating, Foxtail, Giant): 5% | pest or weed control at 250 g/ha (giant foxtail; Setaria faberi, pre-emergence, 312 h, 250 g ai/ha, scale 0-100, read-out: Plant response rating, Foxtail, Giant): 100% | pest or weed control at 500 g/ha (giant foxtail; Setaria faberi, pre-emergence, 312 h, 500 g ai/ha, scale 0 to 100 (0 no effect, 100 complete control), visual, 12 to 14 days, read-out: Plant response rating, Foxtail, Giant): 100% | pest or weed control at 62 g/ha ([1]; Cyperus difformis, 62 g ai/ha, scale 0 to 100, read-out: Sedge, Umbrella plant response rating): 50% | pest or weed control at 125 g/ha ([1]; Cyperus difformis, 125 g ai/ha, scale 0 to 100 (0 no effect, 100 complete control), read-out: Sedge, Umbrella plant response rating): 75% | pest or weed control at 250 g/ha ([1]; Cyperus difformis, 250 g ai/ha, scale of 0 to 100, 0 is no effect, 100 is complete control, read-out: Sedge, Umbrella plant response rating): 90% | pest or weed control at 500 g/ha ([1]; Cyperus difformis, 500 g ai/ha, visual rating after 12 to 14 days, scale 0 to 100 (0 no effect, 100 complete control), read-out: Plant response rating, Sedge, Umbrella): 95% | Plant response rating (0 = no effect, 100 = complete control), Morningglory (morningglory; 125 g ai/ha, preemergence): 5 | pest or weed control at 62 g/ha (morningglory; Ipomoea, pre-emergence, 62 g ai/ha, preemergence, scale 0 to 100, read-out: Plant response rating, Morningglory): 5% | pest or weed control at 250 g/ha (morningglory; Ipomoea, pre-emergence, 250 g ai/ha, scale 0-100, read-out: Plant response rating, Morningglory): 40% | pest or weed control at 500 g/ha (morningglory; Ipomoea, pre-emergence, 500 g ai/ha, scale 0 to 100 (0 no effect, 100 complete control), visual, 12 to 14 days, read-out: Plant response rating, Morningglory): 60% | pest or weed control at 62 g/ha (barnyardgrass; Echinochloa crus-galli, 62 g ai/ha, scale 0 to 100 (0 no effect, 100 complete control), read-out: Barnyardgrass plant response rating): 25% | pest or weed control at 125 g/ha (barnyardgrass; Echinochloa crus-galli, 125 g ai/ha, scale 0 to 100 (0 no effect, 100 complete control), read-out: Barnyardgrass plant response rating): 45% | pest or weed control at 250 g/ha (barnyardgrass; Echinochloa crus-galli, 250 g ai/ha, scale of 0 to 100, 0 is no effect, 100 is complete control, read-out: Barnyardgrass plant response rating): 65% | pest or weed control at 500 g/ha (barnyardgrass; Echinochloa crus-galli, 500 g ai/ha, visual rating after 12 to 14 days, scale 0 to 100 (0 no effect, 100 complete control), read-out: Plant response rating, Barnyardgrass): 90% | Plant response rating (0 = no effect, 100 = complete control), Nutsedge, Yellow (yellow nutsedge; 125 g ai/ha, preemergence): 0 | pest or weed control at 62 g/ha (yellow nutsedge; Cyperus, pre-emergence, 62 g ai/ha, preemergence, scale 0 to 100, read-out: Plant response rating, Nutsedge, Yellow): 0% | pest or weed control at 250 g/ha (yellow nutsedge; Cyperus, pre-emergence, 250 g ai/ha, scale 0-100, read-out: Plant response rating, Nutsedge, Yellow): 10% | pest or weed control at 500 g/ha (yellow nutsedge; Cyperus, pre-emergence, 500 g ai/ha, scale 0 to 100 (0 no effect, 100 complete control), visual, 12 to 14 days, read-out: Plant response rating, Nutsedge, Yellow): 50%
